Key:
Experiment in all cases: fluorescence light-up, plate reader
Details in all cases: 100 mM K+ (KCl); 20 mM Tris-HCl, pH 7.8; 5 µM dye, 5 µM oligonucleotide; not an affinity constant
[1] = test system: TBA31 (DNA, G4) CACTGGTAGGTTGGTGTGGTTGGGGCCAGTG
[2] = test system: TBA15 (DNA, G4) GGTTGGTGTGGTTGG
[3] = test system: TBA25 (DNA, G4) TGGTAGGTTGGTGTGGTTGGGGCCA
[4] = test system: ON31 (RNA, G4) CACUGGUAGGUUGGUGUGGUUGGGGCCAGUG
[5] = test system: ON15 (RNA, G4) GGUUGGUGUGGUUGG
[6] = test system: Tel23a (DNA, G4) AGGGTTAGGGTTAGGGTTAGGGT
[7] = test system: TBA63 (DNA, G4) ATAAAATAAAAAATTACACTGGTAGGTTGGTGTGGTTGGGGCCAGTGTAATTTTTTATTTTAT
[8] = test system: ON1+2 (ON1-ON2 duplex) (DNA, duplex) ATAAAATAAAAAATTACACTGG/CCAGTGTAATTTTTTATTTTAT

| Structure (SMILES) | Fluorescence Intensity Enhancement [1] | Fluorescence Intensity Enhancement [2] | Fluorescence Intensity Enhancement [3] | Fluorescence Intensity Enhancement [4] | Fluorescence Intensity Enhancement [5] | Fluorescence Intensity Enhancement [6] | other results |
| --- | --- | --- | --- | --- | --- | --- | --- |
| CC(=O)C1=N/C(=C\c2c[nH]c3ccccc23)C(=O)N1C | 20.5 ± 0.22 fold | 2.9 ± 0.11 fold | 31.7 ± 0.40 fold | 19.0 ± 0.25 fold | 7.1 ± 0.09 fold | 7.1 ± 0.16 fold | – |
| CN1/C(=C/c2cc[n+](C)cc2)Sc2ccccc21 | – | – | – | – | – | – | binding [4]: yes; binding [5]: yes |
| CN1C(=O)/C(=C/c2ccc(O)cc2)N=C1/C=C/c1ccc(Br)cc1 | 7.4 ± 0.08 fold | 2.0 ± 0.08 fold | – | – | – | – | – |
| CN1C(=O)/C(=C/c2ccc(O)cc2)N=C1/C=C/c1ccc(C(F)(F)F)cc1 | – | – | – | 2.5 ± 0.03 fold | – | – | – |
| CN1C(=O)/C(=C/c2ccc(O)cc2)N=C1/C=C/c1ccc(N(C)C)cc1 | 12.3 ± 0.13 fold | – | 20.6 ± 0.29 fold | – | – | – | – |
| CN1C(=O)/C(=C/c2ccc(O)cc2)N=C1/C=C/c1ccccc1F | – | – | 23.0 ± 0.25 fold | – | – | – | – |
| CN1C(=O)/C(=C/c2ccc(O)cc2)N=C1C(=O)c1ccccc1 | – | – | 8.7 ± 0.17 fold | – | 6.1 ± 0.10 fold | – | – |
| CN1C(=O)/C(=C/c2ccccc2)N=C1Nc1ccccc1 | – | – | – | 11.0 ± 0.13 fold | 4.7 ± 0.11 fold | – | – |
| COc1cc(/C=C2N=C(/C=C/c3ccncc3)N(C)C\2=O)cc(OC)c1O | 16.5 ± 0.18 fold | 3.3 ± 0.13 fold | – | 6.8 ± 0.13 fold | – | 6.2 ± 0.12 fold | – |
| Cc1ccc(/C(O)=C/C2=NC(=C\c3ccc(O)cc3)/C(=O)N2C)cc1 | 18.8 ± 0.28 fold | 2.1 ± 0.12 fold | 19.1 ± 0.21 fold | – | – | 12.4 ± 0.19 fold | Fluorescence Intensity Enhancement [7]: 12.1 ± 0.15 fold; Fluorescence Intensity Enhancement [8]: 4.0 ± 0.09 fold |
